Test results taken from PubChem BioAssay AID2060504 (Molecular Pharmacology Branch, DTP, NCI, 2025).
Values belong to the compound of their own block, whether it stands above or below them.

Test system: 636577-100-R-J1-PDC complex spheroid viability
Test: Anticancer human tumor 636577-100-R-J1-PDC patient-derived endometrial adenocarcinoma cell line growth inhibition [GQUAD]
Settings: for IC50: curve of first compound; for viability, T/C: stronger effect = lower value
How it was run: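 Multi-cell-type spheroids of tumor cells with HUVEC and mesenchymal stem cells, treated with drug combinations. Concentrations descend in half-log steps from near clinical Cmax, or from 10 microM where Cmax is unknown; viability read-out.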

[1] = second compound 0.0316 µM, first compound 0.0316 µM
[2] = second compound 0.0316 µM, first compound 0.1 µM
[3] = second compound 0.0316 µM, first compound 0.316 µM
[4] = second compound 0.0316 µM, first compound 1 µM
[5] = second compound 0.0316 µM, first compound 3.16 µM
[6] = second compound 0.0316 µM, first compound 10 µM
[7] = second compound 0.1 µM, first compound 0.0316 µM
[8] = second compound 0.1 µM, first compound 0.1 µM
[9] = second compound 0.1 µM, first compound 0.316 µM
[10] = second compound 0.1 µM, first compound 1 µM
[11] = second compound 0.1 µM, first compound 3.16 µM
[12] = second compound 0.1 µM, first compound 10 µM
[13] = second compound 0.316 µM, first compound 0.0316 µM
[14] = second compound 0.316 µM, first compound 0.1 µM
[15] = second compound 0.316 µM, first compound 0.316 µM
[16] = second compound 0.316 µM, first compound 1 µM
[17] = second compound 0.316 µM, first compound 3.16 µM
[18] = second compound 0.316 µM, first compound 10 µM
[19] = second compound 1 µM, first compound 0.0316 µM
[20] = second compound 1 µM, first compound 0.1 µM
[21] = second compound 1 µM, first compound 0.316 µM
[22] = second compound 1 µM, first compound 1 µM
[23] = second compound 1 µM, first compound 3.16 µM
[24] = second compound 1 µM, first compound 10 µM
[25] = second compound 3.16 µM, first compound 0.0316 µM
[26] = second compound 3.16 µM, first compound 0.1 µM
[27] = second compound 3.16 µM, first compound 0.316 µM
[28] = second compound 3.16 µM, first compound 1 µM
[29] = second compound 3.16 µM, first compound 3.16 µM
[30] = second compound 3.16 µM, first compound 10 µM
[31] = second compound 10 µM, first compound 0.0316 µM
[32] = second compound 10 µM, first compound 0.1 µM
[33] = second compound 10 µM, first compound 0.316 µM
[34] = second compound 10 µM, first compound 1 µM
[35] = second compound 10 µM, first compound 3.16 µM
[36] = second compound 10 µM, first compound 10 µM
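Also: viability read after seven days of drug exposure.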
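For viability, T/C in this document: luminescence signal used as a proxy for viable cells; 100% = DMSO vehicle control wells.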

IC50 (second compound 0.0316 µM): < 31.6 nM | IC50 (second compound 0.1 µM): < 31.6 nM | IC50 (second compound 0.316 µM): < 31.6 nM | IC50 (second compound 1 µM): < 31.6 nM | IC50 (second compound 3.16 µM): < 31.6 nM | IC50 (second compound 10 µM): < 31.6 nM
SMILES: C#Cc1c(F)ccc2cc(O)cc(-c3ncc4c(N5CC6CCC(C5)N6)nc(OCC56CCCN5CC(F)C6)nc4c3F)c12 (stereo unspecified) + Cc1cnc(CNC(=O)c2c(=O)c3ccc(N4CCCN(C)CC4)nc3n3c2sc2ccccc23)cn1
viability, T/C [1]: 48.3% | viability, T/C [2]: 45.1% | viability, T/C [3]: 46% | viability, T/C [4]: 30.9% | viability, T/C [5]: 38% | viability, T/C [6]: 28.6% | viability, T/C [7]: 31.6% | viability, T/C [8]: 26.9% | viability, T/C [9]: 25.8% | viability, T/C [10]: 21.6% | viability, T/C [11]: 22.5% | viability, T/C [12]: 20% | viability, T/C [13]: 22.2% | viability, T/C [14]: 22.6% | viability, T/C [15]: 25% | viability, T/C [16]: 18.9% | viability, T/C [17]: 19.8% | viability, T/C [18]: 16% | viability, T/C [19]: 18.4% | viability, T/C [20]: 19% | viability, T/C [21]: 21% | viability, T/C [22]: 18.1% | viability, T/C [23]: 15.7% | viability, T/C [24]: 13.3% | viability, T/C [25]: 17.1% | viability, T/C [26]: 20.5% | viability, T/C [27]: 19.5% | viability, T/C [28]: 17.4% | viability, T/C [29]: 17% | viability, T/C [30]: 16.5% | viability, T/C [31]: 19.3% | viability, T/C [32]: 16.1% | viability, T/C [33]: 20.3% | viability, T/C [34]: 17.5% | viability, T/C [35]: 19.7% | viability, T/C [36]: 16.2%

IC50 (second compound 0.0316 µM): 358 nM | IC50 (second compound 0.1 µM): < 31.6 nM | IC50 (second compound 0.316 µM): < 31.6 nM | IC50 (second compound 1 µM): < 31.6 nM | IC50 (second compound 3.16 µM): < 31.6 nM | IC50 (second compound 10 µM): < 31.6 nM
SMILES: CC(C)(O)C1CCC(Nc2ccc3ncc(-c4cccc(C(F)(F)F)c4)n3n2)CC1 (stereo unspecified) + Cc1cnc(CNC(=O)c2c(=O)c3ccc(N4CCCN(C)CC4)nc3n3c2sc2ccccc23)cn1
viability, T/C [1]: 52.8% | viability, T/C [2]: 51.1% | viability, T/C [3]: 51.6% | viability, T/C [4]: 37.6% | viability, T/C [5]: 22% | viability, T/C [6]: 21.3% | viability, T/C [7]: 28.9% | viability, T/C [8]: 32.1% | viability, T/C [9]: 32.7% | viability, T/C [10]: 29.3% | viability, T/C [11]: 16.6% | viability, T/C [12]: 18.6% | viability, T/C [13]: 25.3% | viability, T/C [14]: 28.4% | viability, T/C [15]: 27.2% | viability, T/C [16]: 24.4% | viability, T/C [17]: 18.2% | viability, T/C [18]: 16% | viability, T/C [19]: 17.9% | viability, T/C [20]: 27.1% | viability, T/C [21]: 25.6% | viability, T/C [22]: 22.4% | viability, T/C [23]: 18.7% | viability, T/C [24]: 13.9% | viability, T/C [25]: 19.7% | viability, T/C [26]: 22.3% | viability, T/C [27]: 25.1% | viability, T/C [28]: 23.3% | viability, T/C [29]: 12.7% | viability, T/C [30]: 7.93% | viability, T/C [31]: 19.2% | viability, T/C [32]: 24.1% | viability, T/C [33]: 24.4% | viability, T/C [34]: 21.3% | viability, T/C [35]: 0.12% | viability, T/C [36]: 0.11%

IC50 (second compound 0.0316 µM): < 31.6 nM | IC50 (second compound 0.1 µM): < 31.6 nM | IC50 (second compound 0.316 µM): < 31.6 nM | IC50 (second compound 1 µM): < 31.6 nM | IC50 (second compound 3.16 µM): < 31.6 nM | IC50 (second compound 10 µM): < 31.6 nM
SMILES: CCCS(=O)(=O)Nc1ccc(F)c(C(=O)c2c[nH]c3ncc(-c4ccc(Cl)cc4)cc23)c1F + Cc1cnc(CNC(=O)c2c(=O)c3ccc(N4CCCN(C)CC4)nc3n3c2sc2ccccc23)cn1
viability, T/C [1]: 41.1% | viability, T/C [2]: 40.1% | viability, T/C [3]: 61.3% | viability, T/C [4]: 33.9% | viability, T/C [5]: 44.3% | viability, T/C [6]: 24.2% | viability, T/C [7]: 32% | viability, T/C [8]: 31% | viability, T/C [9]: 33.2% | viability, T/C [10]: 31% | viability, T/C [11]: 29.8% | viability, T/C [12]: 21.4% | viability, T/C [13]: 24.1% | viability, T/C [14]: 25.8% | viability, T/C [15]: 29.9% | viability, T/C [16]: 27.4% | viability, T/C [17]: 26.9% | viability, T/C [18]: 15.7% | viability, T/C [19]: 17.6% | viability, T/C [20]: 24.2% | viability, T/C [21]: 27.4% | viability, T/C [22]: 26.8% | viability, T/C [23]: 24.9% | viability, T/C [24]: 14.7% | viability, T/C [25]: 17.5% | viability, T/C [26]: 21.9% | viability, T/C [27]: 22% | viability, T/C [28]: 25.1% | viability, T/C [29]: 22.7% | viability, T/C [30]: 15.4% | viability, T/C [31]: 20.2% | viability, T/C [32]: 22.1% | viability, T/C [33]: 18.5% | viability, T/C [34]: 21.1% | viability, T/C [35]: 21.7% | viability, T/C [36]: 6.34%
